Bounds are passed on as bounds.

Assay [1] can be described thus: Chemopreventive index, ratio of IC50 for mouse Hepa-1c1c7 cells to drug level required to double NADPH:quinone reductase activity in mouse Hepa-1c1c7 cells.
The nature of assay [2]: Cytotoxicity against mouse Hepa1c1c7 cells. The format is cell-based. Conditions: Hepa-1c1c7.
Assay [3] has as its target NAD(P)H dehydrogenase [quinone] 1 (Mus musculus) (UniProt Q64669). Conditions: Hepa1c1c7, filed as activator.
Description: Induction of quinone reductase activity in mouse Hepa1c1c7 cells

NAD(P)H dehydrogenase [quinone] 1 (Mus musculus), sequence (Q64669 whole entry): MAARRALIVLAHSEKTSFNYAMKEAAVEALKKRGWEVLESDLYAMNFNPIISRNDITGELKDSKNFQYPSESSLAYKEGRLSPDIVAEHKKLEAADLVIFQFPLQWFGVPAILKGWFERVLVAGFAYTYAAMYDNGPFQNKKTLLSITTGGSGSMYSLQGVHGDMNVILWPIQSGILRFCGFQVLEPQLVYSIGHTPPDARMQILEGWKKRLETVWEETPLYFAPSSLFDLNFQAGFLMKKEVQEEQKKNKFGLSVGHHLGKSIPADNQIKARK

In the case of `CCCCCC(O)C#CC#CC(O)c1ccc2c(c1)OCO2` (centres undefined), in assay [1], the Ratio is reported as over 28.2. Also, the half-maximal inhibitory concentration (IC50) (usually the midpoint of a concentration-inhibition curve) in assay [2] is over 50 µM.
Turning to `C[S+]([O-])CCCCN=C=S` (centres undefined) [SULFORAPHANE], the Ratio in assay [1] is 29.5. Also, in assay [3], the CD is 0.5 µM.

(Values after ChEMBL document CHEMBL4715766, “Systemic structure-activity relationship study of phenyl polyyne diols as potential chemopreventive agents” (Bioorg Med Chem Lett, 2016).)
